Measured values taken from US20190223437A1, “ACTIVE COMPOUND COMBINATIONS COMPRISING A 5-SUBSTITUTED IMIDAZOLE DERIVATIVE” (BAYER CROPSCIENCE AKTIENGESELLSCHAFT, priority 2016, published 2019).
Marks after values point to notes of the source that are not given here.

test: Measurement of Log P values by HPLC on reversed phase columns (EEC directive 79/831 Annex V.A8); assay type: physicochemical; details: not given

LogP	Structure (SMILES)
2.04^[a]	N#Cc1cncn1CC(O)(Cc1ccnc(Cl)c1)C1(Cl)CC1 (racemic) [Example I-62]
3.10^[a]	N#Cc1cncn1CC(O)(Cc1ccc(Cl)cc1)C1(Cl)CC1 (racemic) [Example I-64]
2.69^[a]	OC(Cc1cccc(Cl)c1Cl)(Cn1cncc1Cl)C1(Cl)CC1 (racemic) [Example I-66]
2.08^[a]	OC(Cc1ccnc(Cl)c1Cl)(Cn1cncc1Cl)C1(Cl)CC1 (racemic) [Example I-67]
2.69^[a]	Cc1ccc(CC(O)(Cn2cncc2Cl)C2(Cl)CC2)c(C)c1 (racemic) [Example I-68]
2.33^[a]	Cc1ccccc1CC(O)(Cn1cncc1Cl)C1(Cl)CC1 (racemic) [Example I-71]
1.52^[a]	OC(Cc1ccncc1Cl)(Cn1cncc1Cl)C1(Cl)CC1 (racemic) [Example I-72]
2.23^[a]	OC(Cc1cc(Cl)nc(Cl)c1)(Cn1cncc1Cl)C1(Cl)CC1 (racemic) [Example I-74]
1.62^[a]	OC(Cc1ccnc(Cl)c1)(Cn1cncc1Cl)C1(Cl)CC1 (racemic) [Example I-75]
1.50^[a]	Nc1cncn1CC(O)(Cc1ccccc1Cl)C1(Cl)CC1 (racemic) [Example I-78]
2.87^[a]	CC1(C(O)(Cc2ccccc2Cl)Cn2cncc2C#N)CC1 (racemic) [Example I-79]
2.57^[a]	N#Cc1cncn1CC(O)(Cc1ccccc1Cl)C1CC1 (racemic) [Example I-80]
2.67^[a]	CC(C)C(O)(Cc1ccccc1Cl)Cn1cncc1C#N (racemic) [Example I-82]

Second part, the compound before the results:

Structure (SMILES)	LogP
OC(Cc1ccccc1F)(Cn1cncc1Br)C1(Cl)CC1 (racemic) [Example I-33]	2.10^[a]
COc1cncn1CC(O)(Cc1ccccc1F)C1(Cl)CC1 (racemic) [Example I-35]	1.67^[a]
C#Cc1cncn1CC(O)(Cc1ccccc1F)C1(Cl)CC1 (racemic) [Example I-36]	1.89^[a]
OC(Cc1ccccc1F)(Cn1cncc1C1CC1)C1(Cl)CC1 (racemic) [Example I-37]	1.86^[a]
C#Cc1cncn1CC(O)(Cc1ccccc1Cl)C1(Cl)CC1 (racemic) [Example I-38]	2.09^[a]
OC(Cc1ccccc1)(Cn1cncc1Cl)C1(Cl)CC1 (racemic) [Example I-39]	2.04^[a]
N#Cc1cncn1CC(O)(Cc1ccc(Br)cc1Cl)C1(Cl)CC1 (racemic) [Example I-41]	3.52^[a]
N#Cc1cncn1CC(O)(Cc1ccc(Br)cc1F)C1(Cl)CC1 (racemic) [Example I-42]	3.24^[a]
OC(Cc1ccc(Br)cc1F)(Cn1cncc1Cl)C1(Cl)CC1 (racemic) [Example I-44]	2.64^[a]
N#Cc1cncn1CC(O)(Cc1ccncc1Br)C1(Cl)CC1 (racemic) [Example I-46]	1.94^[a]
N#Cc1cncn1CC(O)(Cc1cc(Br)ncc1Br)C1(Cl)CC1 (racemic) [Example I-47]	2.73^[a]
N#Cc1cncn1CC(O)(Cc1cccc(Cl)c1Cl)C1(Cl)CC1 (racemic) [Example I-49]	3.25^[a]
N#Cc1cncn1CC(O)(Cc1ccnc(Cl)c1Cl)C1(Cl)CC1 (racemic) [Example I-50]	2.47^[a]
N#Cc1cncn1CC(O)(Cc1ccc(Oc2ccc(Cl)cc2)cc1Cl)C1(Cl)CC1 (racemic) [Example I-53]	4.54^[a]
COc1ccccc1CC(O)(Cn1cncc1C#N)C1(Cl)CC1 (racemic) [Example I-55]	2.93^[a]
N#Cc1cncn1CC(O)(Cc1cc(Cl)ncc1Cl)C1(Cl)CC1 (racemic) [Example I-56]	2.62^[a]
N#Cc1cncn1CC(O)(Cc1ccncc1Cl)C1(Cl)CC1 (racemic) [Example I-57]	1.88^[a]
N#Cc1cncn1CC(O)(Cc1cc(Cl)cc(Cl)c1)C1(Cl)CC1 (racemic) [Example I-58]	3.55^[a]

same assay, conditions: method [a]: LC-UV, acidic range, 0.1% formic acid in water and acetonitrile as eluent; Table 1, compounds of formula (I)

Structure (SMILES)	LogP
N#Cc1cncn1CC(O)(Cc1ccc(-c2ccccc2)cc1)C1(Cl)CC1 (racemic) [Example I-63]	3.68^[a]
